# Laboratory results published in patent US20120220562A1, “Anti-Viral Compounds” (ABBOTT LABAORATORIES, priority 2011, published 2012).
# Test system: HCV 1b-Con1 replicon
# Test: HCV 1b-Con1 replicon assay in the presence of 5% FBS
# Assay type: cell-based
# Conditions: Hepatitis C virus
row,Structure (SMILES),EC50 [pM]
1,"COC(=O)N[C@H](C(=O)N1CCC[C@H]1c1nc2ccc([C@H]3CC[C@H](c4ccc5nc([C@@H]6CCCN6C(=O)[C@@H](NC(=O)OC)C(C)C)[nH]c5c4)N3c3ccc(OC4CCCC4)c(F)c3)cc2[nH]1)C(C)C [Example 4.1, methyl {(2S)-1-[(2S)-2-{6-[(2R,5R)-1-[4-(cyclopentyloxy)-3-fluorophenyl]-5-{2-[(2S)-1-{(2S)-2-[(methoxycarbonyl)amino]-3-methylbutanoyl}pyrrolidin-2-yl]-1H-benzimidazol-6-yl}pyrrolidin-2-yl]-1H-benzimidazol-2-yl}pyrrolidin-1-yl]-3-methyl-1-oxobutan-2-yl}carbamate]",< 100
2,"COC(=O)N[C@H](C(=O)N1CCC[C@H]1c1nc2cc([C@H]3CC[C@H](c4ccc5[nH]c([C@@H]6CCCN6C(=O)[C@@H](NC(=O)OC)C6CCOCC6)nc5c4)N3c3cc(F)c(N4CCC(c5ccccc5)CC4)c(F)c3)ccc2[nH]1)C(C)C [Example 11.1, methyl [(1S)-2-[(2S)-2-{5-[(2R,5R)-1-[3,5-difluoro-4-(4-phenylpiperidin-1-yl)phenyl]-5-{2-[(2S)-1-{(2S)-2-[(methoxycarbonyl)amino]-3-methylbutanoyl}pyrrolidin-2-yl]-1H-benzimidazol-5-yl}pyrrolidin-2-yl]-1H-benzimidazol-2-yl}pyrrolidin-1-yl]-2-oxo-1-(tetrahydro-2H-pyran-4-yl)ethyl]carbamate]",< 100
3,"COC(=O)N[C@H](C(=O)N1CCC[C@H]1c1nc2ccc([C@H]3CC[C@H](c4ccc5nc([C@@H]6CCCN6C(=O)[C@@H](NC(=O)OC)C(C)C)[nH]c5c4)N3c3cc(F)c(N4CCC(c5ccc(OC)cc5)CC4)c(F)c3)cc2[nH]1)C(C)C [Example 4.34, methyl {(2S)-1-[(2S)-2-{6-[(2R,5R)-1-{3,5-difluoro-4-[4-(4-methoxyphenyl)piperidin-1-yl]phenyl}-5-{2-[(2S)-1-{(2S)-2-[(methoxycarbonyl)amino]-3-methylbutanoyl}pyrrolidin-2-yl]-1H-benzimidazol-6-yl}pyrrolidin-2-yl]-1H-benzimidazol-2-yl}pyrrolidin-1-yl]-3-methyl-1-oxobutan-2-yl}carbamate]",< 100
4,"COC(=O)N[C@H](C(=O)N1CCC[C@H]1c1nc2cc([C@H]3CC[C@H](c4ccc5[nH]c([C@@H]6CCCN6C(=O)[C@@H](NC(=O)OC)C(C)C)nc5c4)N3c3ccc(OCc4ccccc4)cc3)ccc2[nH]1)C(C)C [Example 4.41, methyl {(2S)-1-[(2S)-2-{5-[(2R,5R)-1-[4-(benzyloxy)phenyl]-5-{2-[(2S)-1-{(2S)-2-[(methoxycarbonyl)amino]-3-methylbutanoyl}pyrrolidin-2-yl]-1H-benzimidazol-5-yl}pyrrolidin-2-yl]-1H-benzimidazol-2-yl}pyrrolidin-1-yl]-3-methyl-1-oxobutan-2-yl}carbamate]",< 100
5,"COC(=O)N[C@H](C(=O)N1C[C@@H](OC)C[C@H]1c1nc2cc([C@H]3CC[C@H](c4ccc5[nH]c([C@@H]6C[C@H](OC)CN6C(=O)[C@@H](NC(=O)OC)C(C)C)nc5c4)N3c3ccc(F)cc3)ccc2[nH]1)C(C)C [Example 3.10, methyl {(2S)-1-[(2S,4S)-2-{5-[(2R,5R)-1-(4-fluorophenyl)-5-{2-[(2S,4S)-4-methoxy-1-{(2S)-2-[(methoxycarbonyl)amino]-3-methylbutanoyl}pyrrolidin-2-yl]-1H-benzimidazol-5-yl}pyrrolidin-2-yl]-1H-benzimidazol-2-yl}-4-methoxypyrrolidin-1-yl]-3-methyl-1-oxobutan-2-yl}carbamate]",100 to 1000
6,"COC(=O)N[C@H](C(=O)N1[C@H](c2nc3cc([C@H]4CC[C@H](c5cc6nc([C@@H]7C[C@@H]8CCC[C@@H]8N7C(=O)[C@@H](NC(=O)OC)C7CCCC7)[nH]c6cc5F)N4c4cc(F)c(N5CCCCC5)c(F)c4)c(F)cc3[nH]2)C[C@@H]2CCC[C@@H]21)C1CCCC1 [Example 3.40, dimethyl ({(2R,5R)-1-[3,5-difluoro-4-(piperidin-1-yl)phenyl]pyrrolidine-2,5-diyl}bis{(6-fluoro-1H-benzimidazole-5,2-diyl)(2S,3aS,6aS)hexahydrocyclopenta[b]pyrrole-2,1(2H)-diyl[(1S)-1-cyclopentyl-2-oxoethane-2,1-diyl]})biscarbamate]",< 100
7,"COC(=O)N[C@H](C(=O)N1CCC[C@H]1c1nc2cc([C@H]3CC[C@H](c4ccc5[nH]c([C@@H]6CCCN6C(=O)[C@@H](NC(=O)OC)C6CCOCC6)nc5c4)N3c3cc(F)c(N4CCCCC4)c(F)c3)ccc2[nH]1)C1CCOCC1 [Example 3.18, dimethyl ({(2R,5R)-1-[3,5-difluoro-4-(piperidin-1-yl)phenyl]pyrrolidine-2,5-diyl}bis{1H-benzimidazole-5,2-diyl(2S)pyrrolidine-2,1-diyl [(1S)-2-oxo-1-(tetrahydro-2H-pyran-4-yl)ethane-2,1-diyl]})biscarbamate]",< 100
8,"COC(=O)N[C@H](C(=O)N1CCC[C@H]1c1nc2ccc([C@H]3CC[C@H](c4ccc5nc([C@@H]6CCCN6C(=O)[C@@H](NC(=O)OC)C(C)C)[nH]c5c4)N3c3cc(F)c(N4CCC(CCCc5ccccc5)CC4)c(F)c3)cc2[nH]1)C(C)C [Example 2.10, methyl {(2S)-1-[(2S)-2-{5-[(2R,5R)-1-{3,5-difluoro-4-[4-(3-phenylpropyl)piperidin-1-yl]phenyl}-5-{2-[(2S)-1-{(2S)-2-[(methoxycarbonyl)amino]-3-methylbutanoyl}pyrrolidin-2-yl]-1H-benzimidazol-5-yl}pyrrolidin-2-yl]-1H-benzimidazol-2-yl}pyrrolidin-1-yl]-3-methyl-1-oxobutan-2-yl}carbamate]",< 100
9,"COC(=O)N[C@H](C(=O)N1CCC[C@H]1c1nc2cc([C@H]3CC[C@H](c4ccc5[nH]c([C@@H]6CCCN6C(=O)[C@@H](NC(=O)OC)C(C)C)nc5c4)N3c3cc(F)c(N4CCC(c5cccc([Si](C)(C)C)c5)CC4)c(F)c3)ccc2[nH]1)C(C)C [Example 3.43, methyl {(2S)-1-[(2S)-2-{5-[(2R,5R)-1-(3,5-difluoro-4-{4-[3-(trimethylsilyl)phenyl]piperidin-1-yl}phenyl)-5-{2-[(2S)-1-{(2S)-2-[(methoxycarbonyl)amino]-3-methylbutanoyl}pyrrolidin-2-yl]-1H-benzimidazol-5-yl}pyrrolidin-2-yl]-1H-benzimidazol-2-yl}pyrrolidin-1-yl]-3-methyl-1-oxobutan-2-yl}carbamate]",< 100
10,"COC(=O)N[C@H](C(=O)N1CCC[C@H]1c1nc2ccc([C@H]3CC[C@H](c4ccc5nc([C@@H]6CCCN6C(=O)[C@@H](NC(=O)OC)C(C)C)[nH]c5c4)N3c3cc(F)c(N4CC(C)CC(C)C4)c(F)c3)cc2[nH]1)C(C)C (stereo partly drawn) [Example 5.7, methyl {(2S)-1-[(2S)-2-{6-[(2R,5R)-1-[4-(3,5-dimethylpiperidin-1-yl)-3,5-difluorophenyl]-5-{2-[(2S)-1-{(2S)-2-[(methoxycarbonyl)amino]-3-methylbutanoyl}pyrrolidin-2-yl]-1H-benzimidazol-6-yl}pyrrolidin-2-yl]-1H-benzimidazol-2-yl}pyrrolidin-1-yl]-3-methyl-1-oxobutan-2-yl}carbamate]",< 100
11,"COC(=O)N[C@H](C(=O)N1CCC[C@H]1c1nc2cc(F)c([C@H]3CC[C@H](c4cc5[nH]c([C@@H]6CCCN6C(=O)[C@@H](NC(=O)OC)C6CCOCC6)nc5cc4F)N3c3cc(F)c(N4CCN(c5ccc(C(F)(F)F)cc5)CC4)c(F)c3)cc2[nH]1)C1CCOCC1 [Example 4.46, dimethyl ([(2R,5R)-1-(3,5-difluoro-4-{4-[4-(trifluoromethyl)phenyl]piperazin-1-yl}phenyl)pyrrolidine-2,5-diyl]bis{(5-fluoro-1H-benzimidazole-6,2-diyl)(2S)pyrrolidine-2,1-diyl[(1S)-2-oxo-1-(tetrahydro-2H-pyran-4-yl)ethane-2,1-diyl]})biscarbamate]",< 100
12,"COC(=O)N[C@H](C(=O)N1CCC[C@H]1c1nc2cc([C@H]3CC[C@H](c4ccc5[nH]c([C@@H]6CCCN6C(=O)[C@@H](NC(=O)OC)C(C)C)nc5c4)N3c3cc(F)c(N4CCC(C(C)(C)C)CC4)c(F)c3)ccc2[nH]1)C(C)C [Example 5.9, methyl {(2S)-1-[(2S)-2-{5-[(2R,5R)-1-[4-(4-tert-butylpiperidin-1-yl)-3,5-difluorophenyl]-5-{2-[(2S)-1-{(2S)-2-[(methoxycarbonyl)amino]-3-methylbutanoyl}pyrrolidin-2-yl]-1H-benzimidazol-5-yl}pyrrolidin-2-yl]-1H-benzimidazol-2-yl}pyrrolidin-1-yl]-3-methyl-1-oxobutan-2-yl}carbamate]",< 100
13,"COC(=O)N[C@H](C(=O)N1[C@H](c2nc3cc([C@H]4CC[C@H](c5cc6nc([C@@H]7C[C@@H]8CCC[C@@H]8N7C(=O)[C@@H](NC(=O)OC)[C@@H](C)OC)[nH]c6cc5F)N4c4cc(F)c(N5CCCCC5)c(F)c4)c(F)cc3[nH]2)C[C@@H]2CCC[C@@H]21)[C@@H](C)OC [Example 3.38, methyl {(2S,3R)-1-[(2S,3aS,6aS)-2-{5-[(2R,5R)-1-[3,5-difluoro-4-(piperidin-1-yl)phenyl]-5-(6-fluoro-2-{(2S,3aS,6aS)-1-[N-(methoxycarbonyl)-O-methyl-L-threonyl]octahydrocyclopenta[b]pyrrol-2-yl}-1H-benzimidazol-5-yl)pyrrolidin-2-yl]-6-fluoro-1H-benzimidazol-2-yl}hexahydrocyclopenta[b]pyrrol-1(2H)-yl]-3-methoxy-1-oxobutan-2-yl}carbamate]",< 100
14,"COC(=O)N[C@H](C(=O)N1CCC[C@H]1c1nc2cc([C@H]3CC[C@H](c4ccc5[nH]c([C@@H]6CCCN6C(=O)[C@@H](NC(=O)OC)C(C)C)nc5c4)N3c3cc(F)c(N4CCC(c5cc(F)cc(F)c5)CC4)c(F)c3)ccc2[nH]1)C(C)C [Example 3.45, methyl {(2S)-1-[(2S)-2-{5-[(2R,5R)-1-{4-[4-(3,5-difluorophenyl)piperidin-1-yl]-3,5-difluorophenyl}-5-{2-[(2S)-1-{(2S)-2-[(methoxycarbonyl)amino]-3-methylbutanoyl}pyrrolidin-2-yl]-1H-benzimidazol-5-yl}pyrrolidin-2-yl]-1H-benzimidazol-2-yl}pyrrolidin-1-yl]-3-methyl-1-oxobutan-2-yl}carbamate]",< 100
